From patent US9889183B2, “PKC activators and anticoagulant in regimen for treating stroke” (BLANCHETTE ROCKEFELLER NEUROSCIENCES INSTITUTE, priority 2010, dated 2018)

Tests used:
PKC in primary neurons = assay: PKC activity over time in rat hippocampal primary neurons; assay type: cell-based; conditions: only observed in primary neurons
Experimental: Cell culture. Rat hippocampal H19-7/IGF-IR cells (ATCC, Manassas, Va.) were plated onto poly-L-lysine coated plates and grown at 35° C. in DMEM/10% FCS for several days until about 50% coverage was obtained. The cells were then induced to differentiate into a neuronal phenotype by replacing the medium with 5 ml N2 medium containing 10 ng/ml basic fibroblast growth factor at 39° C. and grown in T-75 flasks at 37° C. Human SH-SY5Y neuroblastoma cells (ATCC) were cultured in 45% F12K/45% MEM/10% FCS. Mouse N2A neuroblastoma cells were cultured in DMEM/10% FCS without glutamine. Rat hippocampal neurons from 18-day-old embryonic Sprague Dawley rat brains were plated on 12- or 96-well plates coated with poly-D-lysine (Sigma-Aldrich, St. Louis, Mo.) in B-27 neurobasal medium containing 0.5 mM glutamine and 25 μM glutamate (Invitrogen, Carlsbad, Calif.) and cultured for three days in the medium without glutamate. The neuronal cells were grown under 5% CO2 in an incubator maintained at 37° C. for 14 days.
Protein kinase C assay. […] 0.5 Ci[^γ32P]ATP was added and ^32P-phosphoprotein formation was measured by adsorption onto phosphocellulose as described previously. […] PKC activity was measured in the absence of diacylglycerol and phosphatidylserine and PKC δ, ε, η, and μ were measured in the absence of added EGTA and CaCl2, as described by Kanno et al. (J. Lipid Res. 2006, vol. 47, pp. 1146-1150). […]

[1] = tested on: global cerebral ischemia/hypoxia in rats; assay: Global ischemia model, water maze (Examples 10-11); assay type: in vivo, rat
Experimental: Rats (male, Wistar, 200-225 g) were randomly divided into 6 groups (8 each) and housed for 1 week before experimentation. […] The global ischemia model used to induce vascular memory impairment was two-vessel occlusion combined with a short term systemic hypoxia. Ligation of the bilateral common carotid arteries was performed under anesthesia (pentobarbital, 60 mg/kg, i.p.). After a one-week recovery from the surgery, rats were exposed to 14-min hypoxia (5% oxygen in a glass jar). Control rats (sham operated and vehicle controls) were subjected to the same incision to isolate both common carotid arteries and to 14-min air (in the glass jar). Body temperature was kept at 37-37.5° C. using a heating light source during the surgical procedure and until the animals were fully recovered.

[2] = tested on: global cerebral ischemia/hypoxia in rats; assay: Global cerebral ischemia/hypoxia, spatial learning and memory (Example 12); assay type: in vivo, rat
Experimental: Global cerebral ischemialhypoxia was induced in male Wistar rats (225-250 g) by permanently occluding the bilateral common carotid arteries, combined with about 14 minutes of low oxygen (about 5%). […] Spatial learning (2 trials/day for 4 days) and memory (a probe test of 1 minute, 24 hours after the last trial) task was performed 9 days after the last dose. Overall, there was a significant difference between the groups (F3,255=31.856, p<0.001) and groups x trials (F21,255=1.648, p<0.05). Global cerebral ischemia impaired the spatial learning (ischemial vs. sham-operated F1,127=[…]).

Structure (SMILES): CCCCCC1CC1CC1CC1CCCCCCCC(=O)O (centres unmarked) [BR-101, 2-[(2-pentylcyclopropyl)methyl]cyclopropaneoctanoic acid]
- time PKC remained elevated (PKC in primary neurons): at least four

Structure (SMILES): CCC/C=C/C=C/C(=O)O[C@H]1/C(=C/C(=O)OC)C[C@H]2C[C@H]([C@@H](C)O)OC(=O)C[C@H](O)C[C@@H]3C[C@H](OC(C)=O)C(C)(C)[C@](O)(C[C@@H]4C/C(=C/C(=O)OC)C[C@H](/C=C/C(C)(C)[C@]1(O)O2)O4)O3 [Bryostatin-1, bryostatin-1]
- water maze spatial learning, ischemic treated vs ischemic rats ([1]; bryostatin-1 20 μg/m^2 i.v. 2 doses/week, 10 doses, MCDA 1.0 mg/kg i.p. daily 5 weeks, start 24 hours after hypoxia): greatly improved the performance
- water maze spatial learning, drug-only vs control rats ([1]; non-ischemic rats, same regimens): no differences
- water maze spatial learning, ischemic treated vs control rats ([1]; same regimens): did not differ statistically
- memory retention (target quadrant preference) after ischemia ([2]; 15 μg/m^2, ischemic rats): effectively restored memory retention
- spatial learning, Bryostatin-1 alone vs sham-operated ([2]; 15 μg/m^2, non-ischemic rats): did not affect the learning
- target quadrant preference, Bryostatin-1 alone vs sham-operated ([2]; 15 μg/m^2, non-ischemic rats): no significant effects
- spatial learning impairment after ischemia ([2]; 15 μg/m^2 tail vein, 2 doses/week, 10 doses, start about 24 hours after event, tested 9 days after last dose): restored
